Read-outs that look alike come from different tables or passages of the source.
Legend:
Experiment in all cases: Synergy test, high resolution MIC microtiter plate assay
Format in all cases: cell-based
[1] = system: Staphylococcus aureus (S. aureus—ATCC #6538); conditions: S. aureus, Ag-polymer on active silver ion basis; for MIC: Staphylococcus aureus, ATCC6538, read-out: MIC of component acting alone (end point)
Excerpt: (§1) One measure of synergism is the industrially accepted method described by Kull, F. C.; Eisman, P. C.; Sylwestrowicz, H. D. and Mayer, R. L., in Applied Microbiology 9:538-541 (1961), using the ratio determined by the formula: Ca/CA+Cb/CB=Synergy Index (“SI”) wherein:
(§2) CA=concentration of compound A (first component) in ppm, acting alone, which produced an end point (MIC of Compound A).
(§3) Ca=concentration of compound A in ppm, in the mixture, which produced an end point.
(§4) CB=concentration of compound B (second component) in ppm, acting alone, which produced an end point (MIC of Compound B).
(§5) Cb=concentration of compound B in ppm, in the mixture, which produced an end point.
(§6) When the sum of Ca/CA and Cb/CB is greater than one, antagonism is indicated. […] The lower the SI, the greater the synergy shown by that particular mixture. The minimum inhibitory concentration (MIC) of an antimicrobial compound is the lowest concentration tested under a specific set of conditions that prevents the growth of added microorganisms.
(§7) Synergy tests were conducted using standard microtiter plate assays with media designed for optimal growth of the test microorganism. Soybean Casein Digest Broth (Tryptic Soy Broth, TSB medium) or minimal salt medium supplemented with 0.2% glucose and 0.1% yeast extract (M9GY medium) was used for testing bacteria; Potato Dextrose Broth (PDB medium) was used for testing yeast and mold. In this method, a wide range of combinations of microbicides was tested by conducting high resolution MIC assays in the presence of various concentrations of the biocides. High resolution MICs were determined by adding varying amounts of microbicide to one column of a microtitre plate and doing subsequent ten-fold dilutions using an automated liquid handling system.
(§8) The bacteria were used at a concentration of about 1-6×10^6 bacteria per mL and the yeast and mold at 1-5×10^5 fungi per mL. These microorganisms are representative of natural contaminants in many consumer and industrial applications. […] (yeast and mold) or 30° C. (bacteria).

[2] = system: Aspergillus niger (A. niger—ATCC 16404); conditions: A. niger, Ag-polymer on active silver ion basis; for MIC: Aspergillus niger, read-out: MIC of component acting alone (end point)
Excerpt: as §1, §2, §3, §4, §5, §6, §7, §8

[3] = system: Candida albicans (C. albicans—ATCC 10231); conditions: C. albicans, Ag-polymer on active silver ion basis; for MIC: Candida albicans, ATCC10231, read-out: MIC of component acting alone (end point)
Excerpt: as §1, §2, §3, §4, §5, §6, §7
(§9) […]. The bacteria were used at a concentration of about 1-6×10^6 bacteria per mL and the yeast and mold at 1-5×10^5 fungi per mL. These microorganisms are representative of natural contaminants in many consumer and industrial applications. […] (yeast and mold) or 30° C. (bacteria).
(§10) The end point values in the following examples for the silver-polymer complex are reported on an active silver ion basis.

[4] = system: Esherichia coli (E. coli—ATCC #8739); conditions: Ag-polymer on active silver ion basis; for MIC: Escherichia coli, read-out: MIC of component acting alone (end point)
Excerpt: as §1, §2, §3, §4, §5, §6, §7, §9, §10

[5] = system: Samonella choleraesuis (S. choleraesuis—ATCC #10708); conditions: for MIC: Salmonella enterica, read-out: MIC of component acting alone (end point)
Excerpt: as §1, §2, §3, §4, §5, §6, §7
The synergy of the combinations of the present invention was determined against four bacteria, gram positive Staphylococcus aureus (S. aureus—ATCC #6538) and gram negative Pseudomonas aeruginosa (P. aeruginosa—ATCC #15442), Samonella choleraesuis (S. choleraesuis—ATCC #10708) and Esherichia coli (E. coli—ATCC #8739), a yeast, Candida albicans (C. albicans—ATCC 10231), and a mold, Aspergillus niger (A. niger—ATCC 16404). The bacteria were used at a concentration of about 1-6×10^6 bacteria per mL and the yeast and mold at 1-5×10^5 fungi per mL. These microorganisms are representative of natural contaminants in many consumer and industrial applications. […] (yeast and mold) or 30° C. (bacteria).
as §10

[6] = system: Pseudomonas aeruginosa (P. aeruginosa—ATCC #15442); conditions: Pseudomonas aeruginosa, ATCC15442, P. aeruginosa, Ag-polymer on active silver ion basis, read-out: MIC of component acting alone (end point)
Excerpt: as §1, §2, §3, §4, §5, §6, §7, §8

[7] = S. choleraesuis, contact time 48 hour, Ag-polymer on active silver ion basis
[8] = ATCC16404, 168 h, contact time 7 days

Molecule	MIC ([6]; contact time 24 hour) [µg/mL]	MIC ([1]; contact time 24 hour) [µg/mL]	MIC ([1]; contact time 48 hour) [µg/mL]	MIC [2, 8] [µg/mL]	MIC ([3]; contact time 48 hour) [µg/mL]	MIC ([4]; ATCC8739, contact time 24 hour) [µg/mL]	MIC ([4]; ATCC8739, contact time 48 hour) [µg/mL]	other results
C12-C16 alkyl dimethylbenzylammonium chloride [reference compound]	–	–	–	–	–	–	–	MIC of component acting alone (end point) ([1]; contact time 24 hour): 19.4 ppm; MIC of component acting alone (end point) ([1]; contact time 48 hour): 19.4 ppm; MIC of component acting alone (end point) ([2]; contact time 3 days): 194 ppm; MIC of component acting alone (end point) ([2]; contact time 7 days): 603 ppm; MIC of component acting alone (end point) ([3]; contact time 24 hour): 40.3 ppm; MIC of component acting alone (end point) ([3]; contact time 48 hour): 98 ppm; MIC of component acting alone (end point) ([4]; contact time 48 hour): 4.9 ppm; MIC of component acting alone (end point) [5, 7]: 6.9 ppm
CCCCCCCCn1sc(Cl)c(Cl)c1=O [DCOIT, 4,5-dichloro-2-n-octyl-4-isothiazolin-3-one, reference compound]	1.5	0.29	0.29	2	0.15	0.29	0.43	MIC ([6]; contact time 48 hour): 2.9 µg/mL; MIC [5]: 1.5 µg/mL
CCCCCCCCn1sccc1=O [OIT, 2-n-octyl-4-isothiazolin-3-one, reference compound]	444	72.8	72.8	5.76	0.99	294	294	MIC ([2]; ATCC16404, 72 h, contact time 3 days): 3.9 µg/mL; MIC ([3]; contact time 24 hour): 0.81 µg/mL; MIC ([5]; S. choleraesuis, contact time 24 hour, Ag-polymer on active silver ion basis): 361 µg/mL; MIC [5, 7]: 361 µg/mL
